Test results taken from patent US20190144867A1, “METHOD FOR MITIGATING METASTASIS” (RESEARCH FOUNDATION OF THE CITY UNIVERSITY OF NEW YORK, priority 2015, published 2019).

System: SN12L1 metastatic renal carcinoma cells
Experiment: Modified Boyden chamber 3D migration/invasion with interstitial flow
Assay type: cell-based, human
Conditions: for normalized migration response to interstitial flow with MAPK signaling inhibitors: flow normalized to no-flow controls, FIG. 5; for migration response to interstitial flow following GAG enzymatic cleavage: 4h and 24h exposure to interstitial flow, normalized by no-flow controls
Method: A modified Boyden chamber was used to apply interstitial flow forces to cells in a three-dimensional culture, mimicking those experienced by tumor cells within the interstitium. See Integr Biol (Camb) 2013; 5(11): 1334-43 for details. Briefly, cells were suspended in type I collagen (4 mg/ml), exposed to fluid flow forces via a Darcy flow apparatus (4 h), permitted to migrate for 24 h (without flow) through Transwell chambers (with 8μm pore filters) towards 1 nM TGF-α. Invasion rates were quantified by counting cells present on the underside of the filters. For these tests, only a 4 hour exposure to flow at the lowest shear stress level was applied using a 1 cm H2O hydrostatic pressure differential to drive the flow. Shear stress transmitted to the cell surface through the glycocalyx layer was estimated to be approximately 0.84 dynes/cm^2 and the interstitial flow velocity was 0.83 μm/sec as measured previously, which is in the physiologic range of tumor interstitial flows (0.1-2.0 μm/sec). In addition, baseline migration rates (without flow) for all clonal lines were determined. Based on proliferation rates, HS expression, baseline and flow-mediated migration rates, the CtGFP and shORG-8 cell lines were selected as a paired match for continued experimentation.

O=C1c2ccccc2-c2n[nH]c3cccc1c23 [JNK Inhibitor II, reference compound]
normalized migration response to interstitial flow with MAPK signaling inhibitors: inhibited flow-induced enhancement of migration

C[S+]([O-])c1ccc(-c2nc(-c3ccncc3)c(-c3ccc(F)cc3)[nH]2)cc1 (stereo not shown) [SB 203580, reference compound]
normalized migration response to interstitial flow with MAPK signaling inhibitors: inhibited flow-induced enhancement of migration

N#CC(=C(/N)Sc1ccccc1N)/C(C#N)=C(\N)Sc1ccccc1N [U0126, reference compound]
normalized migration response to interstitial flow with MAPK signaling inhibitors: inhibited flow-induced enhancement of migration

heparinase III
migration response to interstitial flow following GAG enzymatic cleavage (FIG. 4): greatly suppressed
migration response to interstitial flow following GAG enzymatic cleavage (FIG. 4, listed as heparinase): significantly inhibit

hyaluronidase
migration response to interstitial flow following GAG enzymatic cleavage (FIG. 4): greatly suppressed
migration response to interstitial flow following GAG enzymatic cleavage (FIG. 4, listed as Hyaluronidase): significantly inhibit
